Measurements as given in paper PMC5207065, “The Ribosome Restrains Molten Globule Formation in Stalled Nascent Flavodoxin” (The Journal of Biological Chemistry, 2016).

Key:
Assay in all cases: FMN fluorescence quenching on binding to apoprotein, time trace
[1] = target: T1, apo-F44YP (released F44Y flavodoxin construct) (Azotobacter vinelandii, UniProt P00324, F45Y/C70A); settings: 100 mM potassium PPi, 25 °C; refolded apo-F44YP 147 nM, 25 nM FMN
T1 construct: gene nifF; tags kept

[2] = target: T2, F44YRNC (ribosome-nascent chain complex of F44Y flavodoxin) (Azotobacter vinelandii, UniProt P00324, F45Y/C70A); settings: buffer I (HEPES-KOH, magnesium acetate), pH 7.4, 25 °C; 50 nM RNC, 25 nM FMN; stalled on ribosome
T2 construct: gene nifF; fusion: triple StrepII tag, Smt3, flavodoxin, TEV site, linker, SecM; stalled on E. coli ribosome, made in vitro with PURExpress, Strep-Tactin purified; tags kept

[3] = target: T3, flavodoxin (C69A apoflavodoxin; F44Y apoflavodoxin) (Azotobacter vinelandii, UniProt P00324, C70A); settings: 10 or 100 mM potassium PPi, pH 6.0, 25 °C; 140 nM protein, 25 nM FMN
T3 construct: gene nifF; full-length isolated apoflavodoxin, 179 residues, expressed in E. coli TG2; FMN removed
T3 sequence (P00324 2-180 C70A): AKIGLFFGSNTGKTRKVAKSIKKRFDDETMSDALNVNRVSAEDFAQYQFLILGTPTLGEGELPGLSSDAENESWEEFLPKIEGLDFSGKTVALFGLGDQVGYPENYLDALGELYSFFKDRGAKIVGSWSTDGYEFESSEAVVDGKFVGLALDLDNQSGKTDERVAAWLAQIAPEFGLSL

T1 sequence (P00324 2-180 F45Y/C70A): as the sequence (P00324 2-180 C70A) above, with F44Y counted along it
T2 sequence (P00324 2-180 F45Y/C70A, one chain of several): as the sequence (P00324 2-180 C70A) above, with F44Y counted along it

Cc1cc2nc3c(=O)[nH]c(=O)nc-3n(C[C@H](O)[C@H](O)[C@H](O)COP(=O)(O)O)c2cc1C [FMN]
FMN fluorescence quenching on binding to apoprotein, time trace [1]: the FMN binding trace of this refolded apo-F44YP was measured in various buffers
FMN fluorescence quenching on binding to apoprotein, time trace [2]: F44YRNC binds FMN rapidly at both salt concentrations
FMN fluorescence quenching on binding to apoprotein, time trace [3]: time-dependent decrease of FMN fluorescence upon cofactor binding to C69A apoflavodoxin
